Results: ChEMBL document CHEMBL3039007, “Structure-based identification of OATP1B1/3 inhibitors” (Mol Pharmacol, 2013)

Tests used:
[1] = biological target: T1, Solute carrier organic anion transporter family member 1B3 (Homo sapiens, UniProt Q9NPD5)
T1 sequence (Q9NPD5 whole entry): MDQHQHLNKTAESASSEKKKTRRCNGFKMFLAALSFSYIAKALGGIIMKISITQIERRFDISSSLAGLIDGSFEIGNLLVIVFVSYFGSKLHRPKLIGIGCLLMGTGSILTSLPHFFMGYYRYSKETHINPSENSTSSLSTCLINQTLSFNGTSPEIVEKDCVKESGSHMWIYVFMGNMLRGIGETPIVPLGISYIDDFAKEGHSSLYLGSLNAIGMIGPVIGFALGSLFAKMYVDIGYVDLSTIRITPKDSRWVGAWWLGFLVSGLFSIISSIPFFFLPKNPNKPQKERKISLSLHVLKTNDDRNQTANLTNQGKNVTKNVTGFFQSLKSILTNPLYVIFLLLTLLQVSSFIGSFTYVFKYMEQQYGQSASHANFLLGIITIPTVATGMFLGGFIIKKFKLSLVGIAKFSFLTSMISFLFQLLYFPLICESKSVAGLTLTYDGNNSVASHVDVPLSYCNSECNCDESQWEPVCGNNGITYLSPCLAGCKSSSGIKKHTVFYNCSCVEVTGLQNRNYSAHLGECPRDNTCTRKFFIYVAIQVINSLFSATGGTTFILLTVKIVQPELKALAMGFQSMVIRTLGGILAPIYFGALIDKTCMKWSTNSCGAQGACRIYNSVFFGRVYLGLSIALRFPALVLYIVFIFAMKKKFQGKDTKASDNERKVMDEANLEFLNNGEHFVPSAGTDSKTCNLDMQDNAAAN

[2] = biological target: T2, Solute carrier organic anion transporter family member 1B1 (Homo sapiens, UniProt Q9Y6L6); conditions: chinese hamster, cho, 10 µM
T2 sequence (Q9Y6L6 whole entry): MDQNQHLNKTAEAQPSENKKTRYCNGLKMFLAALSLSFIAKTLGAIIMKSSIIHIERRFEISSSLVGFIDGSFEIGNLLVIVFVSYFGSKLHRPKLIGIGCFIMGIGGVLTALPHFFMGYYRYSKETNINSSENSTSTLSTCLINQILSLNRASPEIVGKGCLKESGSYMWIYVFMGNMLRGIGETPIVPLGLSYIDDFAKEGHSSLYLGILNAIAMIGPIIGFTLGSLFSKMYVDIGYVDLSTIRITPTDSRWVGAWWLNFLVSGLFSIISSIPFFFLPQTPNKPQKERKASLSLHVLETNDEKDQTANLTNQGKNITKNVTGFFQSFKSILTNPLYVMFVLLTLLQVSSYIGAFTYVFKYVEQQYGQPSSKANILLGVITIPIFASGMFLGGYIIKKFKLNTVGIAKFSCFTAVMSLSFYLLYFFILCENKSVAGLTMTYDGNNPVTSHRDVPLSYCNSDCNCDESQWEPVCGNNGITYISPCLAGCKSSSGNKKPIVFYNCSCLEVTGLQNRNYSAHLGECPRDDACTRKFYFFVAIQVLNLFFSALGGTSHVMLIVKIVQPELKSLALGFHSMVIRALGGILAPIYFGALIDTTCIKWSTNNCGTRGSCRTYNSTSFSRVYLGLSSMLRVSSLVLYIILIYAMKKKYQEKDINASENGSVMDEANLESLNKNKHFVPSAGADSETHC

[3] = biological target: T1, Solute carrier organic anion transporter family member 1B3; remark: listed apart in the source
[4] = biological target: T2, Solute carrier organic anion transporter family member 1B1
[5] = biological target: T1, Solute carrier organic anion transporter family member 1B3; conditions: chinese hamster, cho, 10 µM
[6] = biological target: T2, Solute carrier organic anion transporter family member 1B1; remark: listed apart in the source

IC50 [1] | residual activity [2] | Ki [3] | IC50 [4] | residual activity [5] | Ki [6] | SMILES
0.692 µM | 7.307% | 0.53 µM | 0.692 µM | 5.392% | 0.38 µM | COC(=O)C[C@H]1C2(C)CC34OC5(C)O[C@@]6([C@H](OC(C)=O)C(OC(C)=O)[C@]7(C)C(/C(=C(/O)C(C)C)C(=O)O[C@H]7c7ccoc7)[C@@]6(O5)[C@H](OC(C)=O)[C@@]3(O)C2OC(=O)C(C)C)[C@]14C (some centres not stated) [BUSSEIN]
0.724 µM | 6.829% | 0.56 µM | 0.759 µM | 3.762% | 0.42 µM | COC(=O)C[C@H]1C2(C)CC34OC5(C)O[C@@]6([C@H](OC)C(OC(=O)C(C)C)[C@]7(C)C(/C(=C(/OC)C(C)C)C(=O)O[C@H]7c7ccoc7)[C@@]6(O5)[C@H](OC)[C@@]3(OC)C2OC(C)=O)[C@]14C (some centres not stated) [CHUKRASIN METHYL ETHER]
2 µM | 11.45% | 1.55 µM | 0.676 µM | 9.757% | 0.37 µM | Cc1onc(-c2c(Cl)cccc2Cl)c1C(=O)N[C@@H]1C(=O)N2[C@@H]1SC(C)(C)[C@@H]2C(=O)[O-].O.[Na+] [DICLOXACILLIN SODIUM]
4.47 µM | 46.4% | 3.46 µM | 3.8 µM | 25.25% | 2.07 µM | O=C(O[C@@H]1Cc2c(O)cc(O)cc2O[C@@H]1c1ccc(O)c(O)c1)c1cc(O)c(O)c(O)c1 [EPICATECHIN GALLATE]
3.09 µM | 6.903% | 2.35 µM | 4.37 µM | 7.433% | 2.41 µM | CCC(=O)O[C@H]1[C@H](O[C@@H]2[C@@H](C)[C@H](O[C@H]3C[C@@](C)(OC)[C@@H](O)[C@H](C)O3)[C@@H](C)C(=O)O[C@H](CC)[C@@](C)(O)[C@H](O)[C@@H](C)C(=O)[C@H](C)C[C@@]2(C)O)O[C@H](C)C[C@@H]1N(C)C.CCCCCCCCCCCCOS(=O)(=O)O [ERYTHROMYCIN ESTOLATE]
2.09 µM | 3.592% | 1.61 µM | 3.02 µM | 30.5% | 1.67 µM | CCOC(=O)CCC(=O)O[C@H]1[C@H](O[C@@H]2[C@@H](C)[C@H](O[C@H]3C[C@@](C)(OC)[C@@H](O)[C@H](C)O3)[C@@H](C)C(=O)O[C@H](CC)[C@@](C)(O)[C@H](O)[C@@H](C)C(=O)[C@H](C)C[C@@]2(C)O)O[C@H](C)C[C@@H]1N(C)C [ERYTHROMYCIN ETHYLSUCCINATE]
2.63 µM | 4.093% | 2.02 µM | 0.102 µM | 15.01% | 0.06 µM | COC(=O)c1c(OC)cc2c(c1C)Oc1c(Cl)c(O)c(Cl)c(C)c1C(=O)O2 [GANGALEOIDIN]
2.24 µM | 30.6% | 1.73 µM | 1.17 µM | 3.626% | 0.65 µM | CC(C)=CCCC1(C)C=Cc2c(O)c3c(c(CC=C(C)C)c2O1)OC12C(=CCCC1C(C)(C)O[C@@]2(C/C=C(\C)C(=O)O)C(=O)O)C3=O (some centres not stated) [GARCINOLIC ACID]
3.89 µM | 95.56% | 2.96 µM | 9.12 µM | 39.06% | 5 µM | O=c1c(-c2ccc(O)cc2)coc2cc(O)cc(O)c12 [GENISTEIN]
5.01 µM | 19.44% | 3.89 µM | 2.24 µM | 23.53% | 1.22 µM | CC(=O)OC/C=C(C)/C=C/C=C(C)/C=C/C1=C(C)CCCC1(C)C [GILRETINOL ACETATE]
0.891 µM | 40.18% | 0.68 µM | 3.8 µM | 18.59% | 2.11 µM | CC1(C)CC[C@]2(C(=O)O)CC[C@]3(C)C(=CC[C@@H]4[C@@]5(C)CC[C@H](O)[C@@](C)(CO)[C@@H]5CC[C@]43C)[C@@H]2C1 [HEDERAGENIN]
2.4 µM | 7.804% | 1.84 µM | 0.145 µM | 14.63% | 0.08 µM | COC(=O)c1c(C)c2c(c(C)c1O)OC(=O)c1c(C)c(Cl)c(O)c(Cl)c1O2 [LEOIDIN]
1.62 µM | 18.31% | 1.25 µM | 0.724 µM | 7.572% | 0.4 µM | CCCCCc1c2c(cc(O)c1C(=O)O)OC(=O)c1c(cc(OC)cc1C(=O)CCCC)O2 [LOBARIC ACID]

The next lines start with the compound.

SMILES | IC50 [1] | residual activity [2] | Ki [3] | IC50 [4] | residual activity [5] | Ki [6]
C=CC1=C(C)/C(=C/c2[nH]c(Cc3[nH]c(/C=C4\NC(=O)C(C)=C4C=C)c(C)c3CCC(=O)O)c(CCC(=O)O)c2C)NC1=O [BILIRUBIN] | 3.39 µM | 15.29% | 2.63 µM | 1.32 µM | 32.05% | 0.72 µM
COC(=O)CC[C@@H](C)[C@H]1CC[C@H]2[C@@H]3[C@H](O)C[C@@H]4C[C@H](O)CC[C@]4(C)[C@H]3C[C@H](O)[C@]12C [CHOLIC ACID, METHYL ESTER] | 3.72 µM | 26.02% | 2.89 µM | 8.32 µM | 40.87% | 4.58 µM
CC(C)CCCC1(C)C=Cc2c(O)c3c(c(CCC(C)C)c2O1)OC12C(CC4CC1C(C)(C)OC2(CCC(C)C(=O)O)C4O)C3=O (configuration not stated) [DECAHYDROGAMBOGIC ACID] | 2.29 µM | 12.82% | 1.77 µM | 1.15 µM | 18.17% | 0.62 µM
CC(C)=CCCC1(C)C=Cc2c(O)c3c(c(CC=C(C)C)c2O1)OC12C(=CC4CC1C(C)(C)OC2(C/C=C(/C)C(=O)O)C4O)C3=O (configuration not stated) [DIHYDROGAMBOGIC ACID] | 2.88 µM | 14.23% | 2.24 µM | 2.24 µM | 17.26% | 1.23 µM
COC(=O)/C(C)=C\CC12OC(C)(C)C3CC(C=C4C(=O)c5c(OC)c6c(c(CC=C(C)C)c5OC431)OC(C)(CCC=C(C)C)C=C6)C2=O (configuration not stated) [DIMETHYL GAMBOGATE] | 5.13 µM | 23.19% | 3.94 µM | 2.29 µM | 62.06% | 1.26 µM
O=C(O)c1cc2ccccc2c(Cc2c(O)c(C(=O)O)cc3ccccc23)c1O.OCCOCCN1CCN(C(c2ccccc2)c2ccc(Cl)cc2)CC1 [HYDROXYZINE PAMOATE] | 1.23 µM | 12.16% | 0.94 µM | 0.813 µM | 13.57% | 0.45 µM
CC[C@@H](C(=O)[C@@H](C)[C@@H](O)[C@H](C)CCc1ccc(C)c(O)c1C(=O)[O-])[C@H]1O[C@](CC)([C@H]2CC[C@](O)(CC)[C@H](C)O2)C[C@@H]1C.[Na+] [LASALOCID A SODIUM] | 0.776 µM | 10.29% | 0.59 µM | 0.479 µM | 6.678% | 0.26 µM
C=C1[C@@H]2CC[C@@]3(C)[C@H](c4ccoc4)OC(=O)C[C@]13O[C@H]1CC(=O)C(C)(C)[C@H](C(OC(C)=O)C(=O)OC)[C@]12C (some centres not stated) [METHYL 6-ACETOXYANGOLENSATE] | 3.8 µM | 11.95% | 2.92 µM | 1.45 µM | 34.99% | 0.8 µM
CCCCCCCCCc1ccc(OCCOCCOCCOCCOCCOCCOCCOCCOCCO)cc1 [NONOXYNOL 9] | 3.72 µM | 32.74% | 2.87 µM | 3.47 µM | 27.96% | 1.92 µM
